Series [1] in a line: Solubility assay at pH 7.4 in PBS. The format is physicochemical. The following applies: for Solubility in PBS: pH 7.4; for solubility at 24 h: 25 °C, pH 7.4, aqueous buffer, thermodynamic from solid.
Method: Solubility assay at pH 7.4. […] The samples were shaken in an orbital shaker at 25° C. for 24 h. These suspensions were filtered through a PTFE 0.45 μm filter (VWR), and the solutions were chromatographically analyzed using a Perkin Elmer Ultra High Performance Liquid Chromatography (UHPLC) instrument, equipped with a reverse-phase (RP) C18 Phenomenex column (2.1×100 mm, 1.7 μm particle size). Gradient elution: the ratio of eluents A and B (0.1% trifluoroacetic acid in water and 0.1% trifluoroacetic acid in acetonitrile, respectively) changed linearly from 60% A-40% B to 0% A-100% B in 12 minutes, followed by 5 minutes in isocratic elution at 100% of eluent B and then 4 minutes in equilibration elution to reset the starting conditions. The flow rate was 0.5 mL/min. Standard injection volumes were either 2 or 4 μl for poorly soluble compounds. The detection system was a Perkin Elmer diode-array-detector. The wavelengths that were monitored for each compound were defined according to the compound's own absorption spectrum. Solubility, expressed as μM concentration of the saturated solution, was calculated via interpolation with external calibration curves that were obtained with solutions of each compound in acetonitrile.
For series [2] the following is noted: pH 7.4.
Method: (§1) Lipophilicity. The shake flask method was chosen to determinate logD7.4.
(§2) The partition coefficients between n-octanol and PBS at pH 7.4 (log D^7.4) were obtained using the shake-flask technique at room temperature. In the shake-flask experiments, 50 mM of phosphate buffered saline pH 7.4 was used as the aqueous phase. The organic (n-octanol) and aqueous phases were mutually saturated by shaking for 4 h. The compounds were solubilized in the buffered aqueous phase at the highest concentration compatible with solubility and appropriate amounts of n-octanol were added. The two phases were shaken for about 20 min, by which time the partitioning equilibrium of solutes had been reached, and then centrifuged (10000 rpm, 10 min).
Series [3] concerns the target recombinant hDHODH (Homo sapiens (Human), UniProt Q02127). Kind of series: hDHODH inhibition assay (DCIP reduction). The class given is biochemical.
A short description of series [4]: log D (pH 7.4), shake-flask n-octanol/PBS. The note with it: n-octanol/PBS pH 7.4, shake flask.
Method: as §1, §2
Series [5] concerns hCoV-OC43. Kind of series: Focus forming reduction assay (FFRA), hCoV-OC43 in HCT-8 cells, single concentration. The format is cell-based. The following applies: HCT8 cells, 72 h p.i., vs DMSO control.
[6] abbreviates: recombinant GST-hDHODH, means ± SE of three independent experiments, read-out: hDHODH IC50 ± SE.
Where [7] appears, read: recombinant GST-hDHODH, means ± SE of three independent experiments.

Values after ≈ are worked out from the molar mass of the structure shown. Like-named read-outs stand apart in the source and are kept apart here.

Sequence of recombinant hDHODH (Q02127 whole entry): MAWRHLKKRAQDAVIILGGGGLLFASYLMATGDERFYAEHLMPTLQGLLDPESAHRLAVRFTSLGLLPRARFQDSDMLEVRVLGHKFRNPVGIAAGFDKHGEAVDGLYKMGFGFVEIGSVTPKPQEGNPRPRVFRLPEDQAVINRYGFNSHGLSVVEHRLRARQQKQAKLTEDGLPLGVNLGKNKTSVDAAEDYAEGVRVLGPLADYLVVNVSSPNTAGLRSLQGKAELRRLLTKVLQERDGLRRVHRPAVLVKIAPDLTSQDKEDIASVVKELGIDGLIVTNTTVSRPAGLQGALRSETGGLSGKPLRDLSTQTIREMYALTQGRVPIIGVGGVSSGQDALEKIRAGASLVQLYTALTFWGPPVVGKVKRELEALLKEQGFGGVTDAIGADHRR

Take `O=C(Nc1c(F)c(F)c(-c2cccc(F)c2)c(F)c1F)c1c(O)nn2ccccc12` [Compound 11, 2-Hydroxy-N-(2,3,3′,5,6-pentafluoro-[1,1′-biphenyl]-4-yl)pyrazolo[1,5-a]pyridine-3-carboxamide]: the “Solubility in PBS” value in series [1] is listed as “<LOD”. In addition, the “Log D7.4 ± SD” value in series [2] is listed as 2.09 ± 0.04. For the same compound, the IC50 in series [3] (setting [6]) turned out to be 2.03 nM.

For the compound `O=C(Nc1ccc(Oc2ccccc2)cn1)c1c(O)nn2ccccc12` [Compound 23, 2-Hydroxy-N-(5-phenoxypiridin-2-yl)pyrazolo[1,5-a]pyridine-3-carboxamide], in series [3] (setting [6]), the IC50 came out at 12000 ± 1000 nM.

Take `CCC(C)Oc1cc(Oc2ccccc2)c(C)cc1NC(=O)c1c(O)nn2ccccc12` (stereo not drawn) [Compound 33, N-(2-(Sec-butoxy)-5-methyl-4-phenoxyphenyl)-2-hydroxypyrazolo[1,5-a]pyridine-3-carboxamide]: the IC50 in series [3] (setting [6]) is 3940 ± 797 nM.

For the compound `CCCC(C)Oc1cc(Oc2ccccc2)c(C)cc1NC(=O)c1c(O)nn2ccccc12` (stereo not drawn) [Compound 34, 2-Hydroxy-N-(5-methyl-2-(pentan-2-yloxy)-4-phenoxyphenyl) pyrazolo[1,5-a]pyridine-3-carboxamide], in series [3] (setting [6]), the IC50 turned out to be 2210 ± 346 nM.

In the case of `Cc1cc(Oc2ccccc2)c(C)cc1NC(=O)c1c(O)nn2ccccc12` [Compound 18], in series [3] (setting [6]), the IC50 worked out at 43 ± 5 nM.

`O=C(Nc1c(F)c(F)c(-c2cccc(OCCCO)c2)c(F)c1F)c1c(O)nn2ccccc12` [Compound 42, 2-Hydroxy-N-(2,3,5,6-tetrafluoro-3′-(3-hydroxypropoxy)-[1,1′-biphenyl]-4-yl) pyrazolo[1,5-a]pyridine-3-carboxamide]: the IC50 in series [3] (setting [6]) turned out to be 3.29 ± 0.33 nM.

As to `O=C(Nc1c(F)c(F)c(-c2cccs2)c(F)c1F)c1c(O)nn2ccccc12` [Compound 7, 2-Hydroxy-N-(2,3,5,6-tetrafluoro-4-(thiophen-2-yl)phenyl)pyrazolo[1,5-a]pyridine-3-carboxamide], the IC50 in series [3] (setting [6]) was 1.35 ± 0.45 nM.

On to `Cc1cc(NC(=O)c2c(O)nn3ccccc23)c(OC(C)C)cc1Oc1ccccc1` [Compound 31, 2-Hydroxy-N-(2-isopropoxy-5-methyl-4-phenoxyphenyl)pyrazolo[1,5-a]pyridine-3-carboxamide], for which the IC50 in series [3] (setting [6]) worked out at 5200 ± 924 nM.

For the compound `CC(O)COc1cccc(-c2c(F)c(F)c(NC(=O)c3c(O)nn4ccccc34)c(F)c2F)c1` (stereo not drawn) [Compound 43, 2-Hydroxy-N-(2,3,5,6-tetrafluoro-3′-(2-hydroxypropoxy)-[1,1′-biphenyl]-4-yl) pyrazolo[1,5-a]pyridine-3-carboxamide], the IC50 in series [3] (setting [6]) was 2.5 ± 0.2 nM.

As to `Cc1cc(NC(=O)c2c(O)nn3ccccc23)c(C(C)C)cc1Oc1ccncc1` [Compound 36, 2-Hydroxy-N-(2-isopropyl-5-methyl-4-(pyridin-4-yloxy)phenyl)pyrazolo[1,5-a]pyridine-3-carboxamide], in series [1], the concentration in solution (solubility at 24 h) came to 111.1 ± 0.35 µM (≈ 44.7 µg/mL). The “Log D7.4 ± SD” value in series [4] is 2.51 ± 0.07.

With `O=C(Nc1ccc2[nH]ccc2c1)c1c(O)nn2ccccc12` [Compound 19, 2-Hydroxy-N-(1H-indol-5-yl)pyrazolo[1,5-a]pyridine-3-carboxamide], the IC50 in series [3] (setting [6]) was more than 10000 nM. Besides, in series [4], the “Log D7.4 ± SD” value is reported as 0.45 ± 0.02.

`O=C(Nc1c(F)c(F)c(-c2cccnc2)c(F)c1F)c1c(O)nn2ccccc12` [Compound 8, 2-Hydroxy-N-(2,3,5,6-tetrafluoro-4-(pyridin-3-yl)phenyl)pyrazolo[1,5-a]pyridine-3-carboxamide]: the “Log D7.4 ± SD” value in series [2] was 0.98 ± 0.03. For the same compound, the IC50 in series [3] (setting [6]) was 6.23 nM.

In the case of `Oc1nn2ccccc2c1/N=N/c1c(F)c(F)c(-c2ccccc2)c(F)c1F` [Compound 25], the IC50 in series [3] (setting [6]) was determined as 13 nM. Moreover, in series [5], the “% Decrease of hCoV-OC43 replication in presence of inhibitor 0.1 μM” value was 18.70%.

For the compound `O=C(Nc1c(F)c(F)c(-c2cccc(C(F)(F)F)c2)c(F)c1F)c1c(O)nn2ccccc12` [Compound 13, 2-Hydroxy-N-(2,3,5,6-tetrafluoro-3′-(trifluoromethyl)-[1,1′-biphenyl]-4-yl)pyrazolo[1,5-a]pyridine-3-carboxamide], in series [1], the “Solubility in PBS” value is given as “<LOD”. Besides, the “Log D7.4 ± SD” value in series [2] is 2.69 ± 0.03. For the same compound, the IC50 in series [3] (setting [6]) is 6.34 ± 0.63 nM.

`O=C(Nc1ccc(Oc2cccc(C(F)(F)F)c2)cn1)c1c(O)nn2ccccc12` [Compound 24, 2-Hydroxy-N-5-[3-(trifluoromethyl)phenoxy]piridin-2-ylpyrazolo[1,5-a]pyridine-3-carboxamide]: in series [3] (setting [6]), the IC50 was more than 10000 nM.

As to `Cc1cc(NC(=O)c2c(O)nn3ccccc23)c(C(C)C)cc1Oc1ccccc1` [Compound 29, 2-Hydroxy-N-(2-isopropyl-5-methyl-4-phenoxyphenyl)pyrazolo[1,5-a]pyridine-3-carboxamide], in series [1], the solubility at 24 h is 1.2 ± 0.28 µM (≈ 0.482 µg/mL). Also, the “Log D7.4 ± SD” value in series [4] was 3.18 ± 0.09.

With `CCC(CC)Oc1cc(Oc2ccccc2)c(C)cc1NC(=O)c1c(O)nn2ccccc12` [Compound 35, 2-Hydroxy-N-(5-methyl-2-(pentan-3-yloxy)-4-phenoxyphenyl)pyrazolo[1,5-a]pyridine-3-carboxamide], the IC50 in series [3] was 6980 ± 1010 nM.

Take `Cc1cc(Sc2ccncc2)c(C)cc1NC(=O)c1c(O)nn2ccccc12` [Compound 26, 2-Hydroxy-N-(2,5-dimethyl-4-(pyridin-4-ylthio)phenyl) pyrazolo[1,5-a]pyridine-3-carboxamide]: the IC50 in series [3] (setting [6]) turned out to be 2210 ± 366 nM. Also, the “Log D7.4 ± SD” value in series [4] is 1.76 ± 0.07.

With `CC(=O)COc1cccc(-c2c(F)c(F)c(NC(=O)c3c(O)nn4ccccc34)c(F)c2F)c1` [Compound 41, 2-Hydroxy-N-(2,3,5,6-tetrafluoro-3′-(2-oxopropoxy)-[1,1′-biphenyl]-4-yl) pyrazolo [1,5-a]pyridine-3-carboxamide], in series [3] (setting [6]), the IC50 was found to be 0.82 ± 0.1 nM.

With `O=C(Nc1c(F)c(F)c(N2CCOCC2)c(F)c1F)c1c(O)nn2ccccc12` [Compound 6, 2-Hydroxy-N-(2,3,5,6-tetrafluoro-4-morpholinophenyl)pyrazolo[1,5-a]pyridine-3-carboxamide], in series [1], the solubility at 24 h was 438 µM (≈ 180 µg/mL). In addition, the “Log D7.4 ± SD” value in series [2] is reported as 0.66 ± 0.08. Also, the half-inhibitory concentration (IC50) in series [3] (setting [6]) was 90.9 nM.

Turning to `O=C(Nc1c(F)c(F)c(-c2ccccc2)c(F)c1F)c1c(O)nn2c(Cl)cccc12` [Compound 4, 7-Chloro-2-hydroxy-N-(2,3,5,6-tetrafluoro-[1,1′-biphenyl]-4-yl)pyrazolo[1,5-a]pyridine-3-carboxamide], in series [1], the “Solubility in PBS” value is “<LOD”. The “Log D7.4 ± SD” value in series [2] is reported as 2.81 ± 0.13. Also, in series [3] (setting [6]), the IC50 was 3.4 nM.

With `Cc1cc(NC(=O)c2c(O)nn3ccccc23)c(OC2CCC2)cc1Oc1ccccc1` [Compound 32, N-(2-cyclobutoxy-5-methyl-4-phenoxyphenyl)-2-hydroxypyrazolo[1,5-a]pyridine-3-carboxamide], the IC50 in series [3] (setting [6]) was more than 10000 nM.

In series [1], `O=C(Nc1c(F)c(F)c(-c2cccc(O)c2)c(F)c1F)c1c(O)nn2ccccc12` [Compound 14, 2-Hydroxy-N-(2,3,5,6-tetrafluoro-3′-hydroxy-[1,1′-biphenyl]-4-yl)pyrazolo[1,5-a]pyridine-3-carboxamide] came in with a solubility at 24 h of 55 µM (≈ 23 µg/mL). In series [2], the “Log D7.4 ± SD” value turned out to be 1.82 ± 0.09. Besides, the IC50 in series [3] (setting [6]) turned out to be 2.78 ± 0.32 nM.

Take `Oc1nn2ccccc2c1/N=N/c1ccc(Oc2ccccc2)cc1` [Compound 38, (E)-3-((4-phenoxyphenyl)diazinyl)pyrazolo[1,5-a]pyridin-2-ol]: the “hDHODH IC50 ± SE” value in series [3] (setting [7]) is “Inactive at 1 microM”.

As for `Cc1cccc2c(C(=O)Nc3c(F)c(F)c(-c4ccccc4)c(F)c3F)c(O)nn12` [Compound 2], the IC50 in series [3] (setting [6]) came to 4.3 nM.

With `Cc1cc(NC(=O)c2c(O)nn3ccccc23)c(C(C)C)cc1Oc1ccc(C(F)(F)F)cc1` [Compound 37, 2-Hydroxy-N-(2-isopropyl-5-methyl-4-(4-(trifluoromethyl)phenoxy)phenyl)pyrazolo[1,5-a]pyridine-3-carboxamide], the solubility at 24 h in series [1] came to 1.23 ± 0.09 µM (≈ 0.577 µg/mL). The inhibition at 0.1 µM in series [5] (Betacoronavirus 1, OC43, HCT-8, 72 h, read-out: % Decrease of hCoV-OC43 replication in presence of inhibitor 0.1 μM) worked out at 36.1%.

In turn, `Cc1cc(Oc2ccccc2)c(C(C)C)cc1NC(=O)c1c(O)nn2ccccc12` [Compound 30, 2-Hydroxy-N-(5-isopropyl-2-methyl-4-phenoxyphenyl)pyrazolo[1,5-a]pyridine-3-carboxamide] came in with a solubility at 24 h in series [1] of 0.98 ± 0.23 µM (≈ 0.393 µg/mL). The “Log D7.4 ± SD” value in series [4] is listed as 2.91 ± 0.07.

On to `O=C(Nc1c(F)c(F)c(-c2ccc(C(F)(F)F)cc2)c(F)c1F)c1c(O)nn2ccccc12` [Compound 12, 2-Hydroxy-N-(2,3,5,6-tetrafluoro-4′-(trifluoromethyl)-[1,1′-biphenyl]-4-yl)pyrazolo[1,5-a]pyridine-3-carboxamide], for which, in series [1], the “Solubility in PBS” value is recorded as “<LOD”. Further, in series [2], the “Log D7.4 ± SD” value was “Insoluble”. Moreover, the IC50 in series [3] (setting [6]) was 71.8 nM.

`O=C(Nc1c(F)c(F)c(-c2ccc(F)cc2)c(F)c1F)c1c(O)nn2ccccc12` [Compound 10, 2-Hydroxy-N-(2,3,4′,5,6-pentafluoro-[1,1′-biphenyl]-4-yl)pyrazolo[1,5-a]pyridine-3-carboxamide]: in series [1], the “Solubility in PBS” value is “<LOD”. Besides, in series [2], the “Log D7.4 ± SD” value was “Insoluble”. The IC50 in series [3] (setting [6]) was determined as 17.7 nM.

Take `Cc1cc(NC(=O)c2c(O)nn3ccccc23)ccc1Oc1ccccc1` [Compound 27]: in series [3] (setting [6]), the IC50 is 480 ± 31 nM.

For `Oc1nn2ccccc2c1-c1nnc(-c2c(F)c(F)c(-c3ccccc3)c(F)c2F)o1` [Compound 39, 3-(5-(2,3,5,6-Tetrafluoro-[1,1′-biphenyl]-4-yl)-1,3,4-oxadiazol-2-yl) pyrazolo [1,5-a]pyridine-2-ol], the “hDHODH IC50 ± SE” value in series [3] (setting [7]) is “Inactive at 1 microM”.

Take `COc1cccc(-c2c(F)c(F)c(NC(=O)c3c(O)nn4ccccc34)c(F)c2F)c1` [Compound 16, 2-Hydroxy-N-(2,3,5,6-tetrafluoro-3′-methoxy-[1,1′-biphenyl]-4-yl)pyrazolo[1,5-a]pyridine-3-carboxamide]: in series [3] (setting [6]), the half-maximal inhibitory concentration (IC50) is 2.75 ± 0.31 nM.

The values are drawn from patent US20240034730A1, “PYRAZOLO DERIVATIVES AS HUMAN DIHYDROOROTATE DEHYDROGENASE (HDHODH) INHIBITORS FOR USE AS ANTIVIRALS” (DRUG DISCOVERY AND CLINIC S.R.L., priority 2020, published 2024).
